# In PubChem BioAssay AID1963837 (Molecular Pharmacology Branch, DTP, NCI, 2024):
# System: 843126-344-R-J1-PDC complex spheroid viability
# Assay: Anticancer human tumor 843126-344-R-J1-PDC patient-derived melanoma cell line growth inhibition [POLQ]
# Settings: for IC50: curve of first compound; for viability, T/C: stronger effect = lower value
# Outline: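 PDC + HUVEC + MSC complex spheroids; POLQ inhibitors ± partner drugs; top conc. at/near clinical Cmax, else 10 microM (SN-38 1 microM), half-log dilutions; 37 degrees C, 5% CO2.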
# [1] = second compound 0.0316 µM, first compound 0.0316 µM
# [2] = second compound 0.0316 µM, first compound 0.1 µM
# [3] = second compound 0.0316 µM, first compound 0.316 µM
# [4] = second compound 0.0316 µM, first compound 1 µM
# [5] = second compound 0.0316 µM, first compound 3.16 µM
# [6] = second compound 0.0316 µM, first compound 10 µM
# [7] = second compound 0.1 µM, first compound 0.0316 µM
# [8] = second compound 0.1 µM, first compound 0.1 µM
# [9] = second compound 0.1 µM, first compound 0.316 µM
# [10] = second compound 0.1 µM, first compound 1 µM
# [11] = second compound 0.1 µM, first compound 3.16 µM
# [12] = second compound 0.1 µM, first compound 10 µM
# [13] = second compound 0.316 µM, first compound 0.0316 µM
# [14] = second compound 0.316 µM, first compound 0.1 µM
# [15] = second compound 0.316 µM, first compound 0.316 µM
# [16] = second compound 0.316 µM, first compound 1 µM
# [17] = second compound 0.316 µM, first compound 3.16 µM
# [18] = second compound 0.316 µM, first compound 10 µM
# [19] = second compound 1 µM, first compound 0.0316 µM
# [20] = second compound 1 µM, first compound 0.1 µM
# [21] = second compound 1 µM, first compound 0.316 µM
# [22] = second compound 1 µM, first compound 1 µM
# [23] = second compound 1 µM, first compound 3.16 µM
# [24] = second compound 1 µM, first compound 10 µM
# [25] = second compound 3.16 µM, first compound 0.0316 µM
# [26] = second compound 3.16 µM, first compound 0.1 µM
# [27] = second compound 3.16 µM, first compound 0.316 µM
# [28] = second compound 3.16 µM, first compound 1 µM
# [29] = second compound 3.16 µM, first compound 3.16 µM
# [30] = second compound 3.16 µM, first compound 10 µM
# [31] = second compound 10 µM, first compound 0.0316 µM
# [32] = second compound 10 µM, first compound 0.1 µM
# [33] = second compound 10 µM, first compound 0.316 µM
# [34] = second compound 10 µM, first compound 1 µM
# [35] = second compound 10 µM, first compound 3.16 µM
# [36] = second compound 10 µM, first compound 10 µM
# 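Throughout, for viability, T/C: spheroids exposed to drugs for seven days before readout.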
smiles,measurement,setting,value
CC(C)n1c(=O)n(C)c2cnc3cc(F)c(-c4ccc(OCCCN5CCCCC5)nc4)cc3c21 + COC1C(OC(N)=O)C(O)C(Oc2ccc3c(O)c(NC(=O)c4ccc(O)c(CC=C(C)C)c4)c(=O)oc3c2C)OC1(C)C,IC50,second compound 0.0316 µM,> 10000 nM
same,IC50,second compound 0.1 µM,> 10000 nM
same,IC50,second compound 0.316 µM,> 10000 nM
same,IC50,second compound 1 µM,> 10000 nM
same,IC50,second compound 3.16 µM,> 10000 nM
same,IC50,second compound 10 µM,> 10000 nM
same,"viability, T/C",[1],79.6%
same,"viability, T/C",[2],85.9%
same,"viability, T/C",[3],94.7%
same,"viability, T/C",[4],86.4%
same,"viability, T/C",[5],77.2%
same,"viability, T/C",[6],70.5%
same,"viability, T/C",[7],81.1%
same,"viability, T/C",[8],69.3%
same,"viability, T/C",[9],85%
same,"viability, T/C",[10],94.8%
same,"viability, T/C",[11],74.8%
same,"viability, T/C",[12],76.1%
same,"viability, T/C",[13],90.8%
same,"viability, T/C",[14],76.2%
same,"viability, T/C",[15],79.8%
same,"viability, T/C",[16],91.1%
same,"viability, T/C",[17],70.3%
same,"viability, T/C",[18],67.8%
same,"viability, T/C",[19],95.5%
same,"viability, T/C",[20],82.4%
same,"viability, T/C",[21],76.3%
same,"viability, T/C",[22],78%
same,"viability, T/C",[23],87.6%
same,"viability, T/C",[24],69.6%
same,"viability, T/C",[25],68.8%
same,"viability, T/C",[26],82.8%
same,"viability, T/C",[27],80.4%
same,"viability, T/C",[28],101%
same,"viability, T/C",[29],77.3%
same,"viability, T/C",[30],66.4%
same,"viability, T/C",[31],79%
same,"viability, T/C",[32],80.4%
same,"viability, T/C",[33],81.7%
same,"viability, T/C",[34],79.8%
same,"viability, T/C",[35],75.8%
same,"viability, T/C",[36],68.3%
CC1COCCN1c1cc(C2(O)CC3CCC(C2)O3)c2cnn(-c3ccn[nH]3)c2n1 (centres undefined) + COC1C(OC(N)=O)C(O)C(Oc2ccc3c(O)c(NC(=O)c4ccc(O)c(CC=C(C)C)c4)c(=O)oc3c2C)OC1(C)C,IC50,second compound 0.0316 µM,387 nM
same,IC50,second compound 0.1 µM,485 nM
same,IC50,second compound 0.316 µM,405 nM
same,IC50,second compound 1 µM,391 nM
same,IC50,second compound 3.16 µM,399 nM
same,IC50,second compound 10 µM,493 nM
same,"viability, T/C",[1],83.6%
same,"viability, T/C",[2],66.6%
same,"viability, T/C",[3],53.6%
same,"viability, T/C",[4],38.9%
same,"viability, T/C",[5],22.7%
same,"viability, T/C",[6],14.5%
same,"viability, T/C",[7],78.8%
same,"viability, T/C",[8],78.9%
same,"viability, T/C",[9],53.2%
same,"viability, T/C",[10],38.8%
same,"viability, T/C",[11],27.2%
same,"viability, T/C",[12],18.3%
same,"viability, T/C",[13],92.1%
same,"viability, T/C",[14],64.9%
same,"viability, T/C",[15],51.5%
same,"viability, T/C",[16],44.5%
same,"viability, T/C",[17],22.5%
same,"viability, T/C",[18],15.1%
same,"viability, T/C",[19],73.2%
same,"viability, T/C",[20],68.3%
same,"viability, T/C",[21],51.4%
same,"viability, T/C",[22],36.3%
same,"viability, T/C",[23],27.4%
same,"viability, T/C",[24],14.7%
same,"viability, T/C",[25],88.7%
same,"viability, T/C",[26],55.5%
same,"viability, T/C",[27],53.2%
same,"viability, T/C",[28],46.8%
same,"viability, T/C",[29],26.1%
same,"viability, T/C",[30],15.6%
same,"viability, T/C",[31],72.5%
same,"viability, T/C",[32],66.9%
same,"viability, T/C",[33],54.7%
same,"viability, T/C",[34],41.6%
same,"viability, T/C",[35],25.6%
same,"viability, T/C",[36],11.7%
